The test system of data set [1] is C57B16 mice. The experiment in a line: Novel object recognition (NOR) test. The following applies: FIG. 4. Type of data set: in vivo. The text has this:
This test is useful for evaluating the role of experimental manipulations on cognition. The recognition test is based on the natural tendency of rodents to investigate a novel object instead of a familiar one. The choice to explore the novel object reflects the use of learning and (recognition) memory processes. Novel Object Recognition (NOR) is based on the premise that rodents will explore a novel object more than a familiar one, but only if they remember the familiar one. This tendency is actually shared by humans, as looking time is often used to make inferences about an infant's memory in the absence of explicit, verbal recognition.
Before training the animals with objects, they are first allowed to acclimatise to the testing environment, a white Perspex box (30 cm by 20 cm) equipped with an overhead camera. After an acclimation session, the animals are ready for the training stage. […]
The amount of time that the rodents spends exploring each object can be calculated by hand or by using a computer program receiving input from the overhead camera. […]

The subject of data set [2] is C57B16 mice. The experiment in a line: Open field test. The following applies: 20 and 50 mg/kg i.p. once daily for 7 days prior to testing, FIG. 3. Type of data set: in vivo. The text has this:
The Open Field test is designed to measure behavioural responses such as locomotor activity, hyperactivity, and exploratory behaviors. Open Field is also used as a measure of anxiety. Rats and mice tend to avoid brightly illuminated, novel, open spaces, so the open field environment acts as an anxiogenic stimulus and allows for measurement of anxiety-induced locomotor activity and exploratory behaviours. Open field testing is a one trial test with little or no impact on the animal's subsequent behaviour. The apparatus for the Open Field test was a square (100 cm by 100 cm) made of white Perspex. Each rat is placed in a corner of the field and its behaviour recorded for five minutes. All activity is recorded by a video camera mounted above the open field and scored in real-time (or digitized and scored later) by the advanced motion-recognition software package Ethovision by Noldus, that detects and analyzes the movements of the rat or mouse. The total distance, average speed, rearing/elongation behaviour, and time spent in various parts of the field (such as, for example, the border areas vs. the open, middle area) is measured and analysed. Testing is carried out in a temperature, noise and light controlled room.
The Experimental protocol employed in the behavioural evaluation of Meparfynol is outlined in FIG. 7. Two separate cohorts of C57B16 mice were employed. […]

In data set [3] the test system is C57B16 mice. Briefly: Pre-pulse inhibition (PPI) of the startle response in mice. Conditions: 20 mg/kg i.p., FIG. 5A. Type of data set: in vivo. The text has this: Prepulse inhibition is a procedure whereby a preceding stimulus attenuates the startle response. The reduced ability to filter out irrelevant auditory stimulation is a characteristic which is thought to contribute to certain manifestations of conditions including inattention, distractibility, and cognitive deficits. The test is quite useful for evaluating transgenic models of schizophrenia as well as to screen potential antipsychotic drugs.
An example of one way of testing for PPI: In the prepulse inhibition (PPI) procedure, the rodent is placed in a small chamber and exposed to a brief pulse of noise. […]
The main three parts of the procedure are prepulse, startle stimulus, and startle reflex. […] Startle response is measured in rodents using the so-called automated “startle chambers” or “stabilimeter chambers”, with detectors recording whole-body reaction. In humans, the movements of oculomotor muscles (“eye-blink reflex” or “eye-blink response” assessed using electromyographic recording of orbicularis oculi muscle and by oculography) could be used as a measure. […]
Mepfarynol was administered by the intraperitoneal route at the doses indicated and as per details outlined above. Values were analysed using a two way ANOVA and Student t-test and those with a p value<0.05 were accepted as significant and where appropriate are indicated with an asterisk.

Data set [4] has as its system C57B16 mice. Briefly: Water maze spatial learning. Type of data set: in vivo. The following applies: i.p. once daily prior to testing, FIG. 6. On the procedure: The Morris water maze (MWM) is a test of spatial learning for rodents that relies on distal cues to navigate from start locations around the perimeter of an open swimming arena to locate a submerged escape platform. Spatial learning is assessed across repeated trials and reference memory is determined by preference for the platform area when the platform is absent.
The test apparatus consists of a large circular pool (1 m diameter, 80 cm high, temperature 26° C.) with a platform (11 cm diameter) submerged 1.5 cm below the surface. Both the pool and the platform were constructed of black polyvinyl plastic, which offered no intra-maze cues. The experimental room contained several extra-maze visual cues. During training the platform was hidden in the same quadrant 30 cm away from the edge of the maze. There were five trials, each of them beginning with the rat facing the wall of the maze in one of three different locations. The time taken for the rat to find the platform within a 90s period was recorded. Probe trials where the platform was removed from the maze and the time the animal spent in the target quadrant were also performed. […]
Finally, drugs inducing neurobehavioural profile are evaluated in the water maze spatial learning paradigm, a robust task of information acquisition and consolidation—a measure of cognitive action

Another data set concerns rats reared in isolation. The experiment in a line: Pre-pulse inhibition (PPI) of the startle response in rats reared in isolation. It counts as in vivo. Conditions: 20 mg/kg, p<0.05, two-way ANOVA, FIG. 5B. From the text:
This reduction or inhibition of startle is not observed in the isolated animals.
One of the most robust, non-invasive rodent models used for studies relating to schizophrenia is isolation rearing of rats (Weiss and Feldon, 2001; Fone and Porkess, 2008). […] PPI is used as an operational measure of sensorimotor gating and is known to be defective in schizophrenics (Swerdlow et al., 1994; Ludewig et al., 2002). […] Reduction or inhibition of startle is not observed in the isolated animals control.

Data set [5] has as its system receptors (cell lines that express only one type of receptor). The experiment in a line: Novascreen receptor affinity screen (competition with a reference ligand). Type of data set: binding. Conditions: 1 μM Meparfynol, all top ranking receptors; FIG. 8C. Here is the method:
Analysis of receptor affinities was performed by Novascreen™ (www.novascreen.com) and those displacing >20% of the natural ligand are indicated by the filled boxes. Blood levels of Mepfarynol were determined by GC mass spectroscopy in separate samples taken from a cannulated jugular at increasing time intervals following a single intraperitoneal injection of the drug ([…]).
The higher the target inhibition value, the greater the affinity Meparfynol has for this particular receptor as it displaces a greater proportion of the reference ligand. This assay is an automated high throughput assay performed on cell lines that express only one type of receptor and was carried out by Novascreen (www.novascreen.com).

The test system of data set [6] is C57B16 mice. The experiment in a line: Neurobehavioural screening (modified SHIRPA protocol), neophobia. Type of data set: in vivo. Conditions: chronic administration protocol, 1 dose/day prior to testing. Here is the method: The Experimental protocol employed in the behavioural evaluation of Meparfynol is outlined in FIG. 7. Two separate cohorts of C57B16 mice were employed. Cohort 1 was used to evaluate the drug effect on prepulse inhibition, open-field and novel object recognition. Cohort 2 was used to evaluate drug effects on spatial learning. The behavioural tests were administered in sequence as per day number indicated in the bar. The drug was administered by the intraperitoneal route and on the day of training the drug was administered after the behavioural analysis. Meparfynol/UCD-1216 was administered at doses of 20 and 50 mg/kg. The compounds were administered once daily, via the intraperitoneal route, for 7 days prior to testing and the animals were drug-free at time of training.
A modified SHIRPA protocol was adopted in order to provide an in vivo drug profile. The SHIRPA protocol is used in both academic and industrial environments for an initial behavioural characterisation of potential psychopharmaceuticals. The first behavioural tier analysis of our modified screen comprised open-field (FIG. 3), novel object recognition (NOR; FIG. 4), and pre-pulse inhibition (PPI; FIGS. 5A and 5B) paradigms. These psycho-pharmacological tests are described in more detail below: […]

The conditions of data set [7]: in vivo; cited from earlier work.
The test system of a further data set is frontal cortex. Conditions: after administration; Society for Neuroscience meeting November 2000; cited from earlier work.

Entries after “also recorded” stand apart in the source; their conditions may differ.

As for `C#C[C@](C)(O)CC` (stereo in doubt) [Meparfynol, 3-methylpent-1-yn-3-ol], in the data set with C57B16 mice [1] (20 and 50 mg/kg i.p. once daily for 7 days prior to testing), the “working memory as measured by the NOR test (exploratory bias for the novel object)” value is on record as “modest enhancement”. The “novel object exploratory time” value in the data set with C57B16 mice [1] (compared to the vehicle-treated controls) is reported as “significantly reduced”. In the data set on C57B16 mice [2], the “effect in the open-field paradigm (locomotor activity)” value was “little effect”. Further, the “pre-pulse inhibition of startle response” value in the data set with C57B16 mice [3] and in the data set with rats reared in isolation was “significantly enhances” each time. In the data set with C57B16 mice [4], the “spatial learning in the water maze” value is “enhanced spatial learning; also recorded: significant pro-cognitive actions”. The “percent target inhibition (reference ligand prevented from binding)” value in data set [5] was “less than 20%”. Moreover, the “neophobia (fear of anything new)” value with C57B16 mice [6] was “reduced neophobia”.
With `CC12CC3CC(C)(C1)CC(N)(C3)C2` [Memantine, 1-amino-3,5-dimethyl adamantane], in data set [7], the “administered dose excreted unchanged in urine” value was 57-82%.
On to `COc1ccc(NS(=O)(=O)c2sc3ccc(Cl)cc3c2C)cc1N1CCNCC1` [SB-271046], for which, in the data set on frontal cortex, the “glutamate and aspartate levels in the frontal cortex” value is “significant increase”; the “noradrenaline, dopamine or 5-HT levels” value is on record as “without affecting”.

The values are drawn from patent US20110034565A1, “PSYCHO-PHARMACEUTICALS” (University College Dublin, National University of Ireland, …, priority 2008, published 2011).
